Several values for one entry are separate records, joined by “and”; a condition that tells them apart may be missing. Equal values may be shown once.
Tested on: male CD-1 mice
Experiment: 5 day chronic oral dosing toxicity study in mice (clinical signs)
Type: in vivo
Parameters: key to Clinical signs (observation code), Day 1, 24 hours / Clinical signs (observation code), Day 2, 24 hours / Clinical signs (observation code), Day 3, 24 hours / Clinical signs (observation code), Day 4, 24 hours / Clinical signs (observation code), Day 5, 24 hours / Clinical signs (observation code), Day 1, 4 hours / Clinical signs (observation code), Day 2, 4 hours / Clinical signs (observation code), Day 3, 4 hours / Clinical signs (observation code), Day 4, 4 hours / Clinical signs (observation code), Day 5, 4 hours: 0: Appeared Normal; 1: Activity (inc./dec.); 2: Sedation/Lethargy; 3: Piloerection; 4: Stereotypy; 5: Soft Stool; 6: Chromodacryorrhea; 7: Epistaxis; 8: Cyanosis; 9: Flaccidity; 10: Respiration; 11: Hunched Posture; 12: Enophthalmia; 13: Exophthalmia; 14: Palpabral Ptosis; 15: Loss of Righting; 16: Chromaturia; 17: Salivation; 18: Lacrimation; 19: Miosis; 20: Mydriasis; 21: Rigidity; 22: Ataxia; 23: Tremors; 24: Convulsions; 25: Catalepsy; 26: Lateral Recumbency; 27: Death
Details: for Clinical signs (observation code), Day 1, 4 hours / Clinical signs (observation code), Day 1, 24 hours / Clinical signs (observation code), Day 2, 4 hours / Clinical signs (observation code), Day 2, 24 hours / Clinical signs (observation code), Day 3, 4 hours / Clinical signs (observation code), Day 3, 24 hours / Clinical signs (observation code), Day 4, 4 hours / Clinical signs (observation code), Day 4, 24 hours / Clinical signs (observation code), Day 5, 4 hours / Clinical signs (observation code), Day 5, 24 hours: one line per animal
Description: This example illustrated a 5 day chronic oral dosing toxicity study with GlyT1 inhibitors. […] Behavioral observations (clinical signs) and body weights were recorded daily for all compounds tested. Male CD-1 mice were purchased from Charles River Labs (Kingston, N.Y.). The animals weighed between 20-25 grams upon arrival. Animals were acclimatized in a temperature/humidity (72° ±5° F./50%±5%) controlled vivarium, with a common 12 hour light/dark cycle (Lights on 0700 hrs) for 5 days prior to test. All animals were allowed food (Purina Labdiete® Rodent chow # 5001) and water (supplied by Elizabethtown Water Company) ad libitum during the acclimation period and throughout the study. On the day prior to test initiation animals were randomly assigned to groups: All animals chosen for test weighed at least 20 grams and appeared in good condition. Each animal was dosed once daily for 5 days. Animals remained on site for a 3 day recovery period following the chronic dosing period.
A stock concentration of each test compound was prepared fresh on the day of study initiation. Aliquots were diluted to the needed concentrations for daily dosing. Stock solutions were kept in a refrigerator when not in use. Each compound was dissolved in a small amount of distilled water. One equivalent of sodium hydroxide (2 N) may have been added to aid in dissolution of each test agent. Vehicle was then added quantum sufficiat to give the final volume. Final volumes were adjusted to reflect percent free base when appropriate. The vehicle used in this experiment was Hydroxypropyl-β-cyclodextrine (HPCD) Acros, lot 011849601, dissolved in distilled water to form a 10% weight/volume concentration. The pH was adjusted, using sodium hydroxide (2 N), to equal that of the test agents (usually between 8 to 10). All prepared test compounds were either in solution, and clear, or in suspension, and slightly cloudy. Suspensions were mixed immediately prior to use.
All animals were administered either test compound or vehicle Per Os (PO) via 21 gauge gavage needles, in volumes of 10.0 ml/kg. Daily body weights were used to determine individual dosing volumes. All test compounds were weighed on a Denver Instruments analytical balance (model # A-250). Animals were weighed on a top loading Ohaus portable balance model # LS2000.
Animals were assessed for overt behaviors (clinical signs) immediately following administration of test agents, then again at 4 and 24 hours. Animals were assessed for 27 separate clinical signs:
Toxicity data obtained through the assay as described above is provided in Tables 1 to 14 for Compounds Gi to Gxiv inclusive. The animals were observed immediately following administration and again at 4 hours and 24 hours. Observations are reported using the code number from the following chart: […]

[1] = 40 mg/kg/day PO, male CD-1 mice

SMILES	Clinical signs (observation code), Day 1, 4 hours [1]	Clinical signs (observation code), Day 1, 24 hours [1]	Clinical signs (observation code), Day 2, 4 hours [1]	Clinical signs (observation code), Day 2, 24 hours [1]	Clinical signs (observation code), Day 3, 4 hours [1]	Clinical signs (observation code), Day 3, 24 hours [1]	Clinical signs (observation code), Day 4, 4 hours [1]	Clinical signs (observation code), Day 4, 24 hours [1]	Clinical signs (observation code), Day 5, 4 hours [1]	Clinical signs (observation code), Day 5, 24 hours [1]	Toxicity profile in comparison (compounds of formula 1 vs other GlyT1 inhibitors of similar potency) (5 day oral dosing in mice, tables 1-18)	Clinical signs (observation code), Day 4, 4 hours (PO, mice)	Clinical signs (observation code), Day 1, 4 hours (dose 10 (m↓kg) PO, mice)	Clinical signs (observation code), Day 2, 4 hours (dose 10 (m↓kg) PO, mice)	Clinical signs (observation code), Day 3, 4 hours (dose 10 (m↓kg) PO, mice)	Clinical signs (observation code), Day 5, 4 hours (dose 10 (m↓kg) PO, mice)	Clinical signs (observation code), Day 1, 24 hours (dose 25 (m↓kg) PO, mice)	Clinical signs (observation code), Day 2, 24 hours (dose 25 (m↓kg) PO, mice)
CN(C/C=C(/c1ccc(-c2cccs2)cc1)c1ccsc1)CC(=O)O [Compound G(iii), (Z)-N-(1-(4-(2-Thienyl)phenyl)-1-(3-thienyl)prop-1-en-3-yl)sarcosine]	0	0	0	0	0	0	14 and 0	0	0	0								
CN(C/C=C(/c1ccc(-c2ccco2)cc1)c1ccsc1)CC(=O)O [Compound G(iv), (Z)-N-(1-(4-(2-Furyl)phenyl)-1-(3-thienyl)prop-1-en-3-yl)sarcosine]	0 and 14	0	0	0	14 (2×) and 0	0	0	0	0 (2×) and 14	0								
CC(C)c1ccc(-c2ccc(/C(=C/CN(C)CC(=O)O)c3ccsc3)cc2)cc1 [Compound G(i), (Z)-N-(1-(4-(4-Isopropylphenyl)phenyl)-1-(3-thienyl)prop-1-en-3-yl)sarcosine]	0	0	0	0	0	0	0	0	0	0								
CN(C/C=C(\c1ccccc1)c1ccc(-c2ccccc2)cc1)CC(=O)O [Compound J, reference compound]											higher toxicity profile	0	0	0	0	0	0	0 and 2
CN(C/C=C(/c1ccc(-c2cccc(C#N)c2)cc1)c1ccsc1)CC(=O)O [Compound G(viii), (Z)-N-(1-(4-(3-Cyanophenyl)phenyl)-1-(3-thienyl)prop-1-en-3-yl)sarcosine]	0	0	0	0	0	0	0	0	0	0								
